Test results taken from article PMC6522510 (Nature Communications, 2019).
Read-outs that look alike come from different tables or passages of the source.

Columns and labels:
Parameters in all cases: species or system AML cell lines (8); Primary HTS, single concentration about 10 uM, Cell Titer Glo viability; log10 luminescence, per cent inhibition relative to cycloheximide control
Conditions in all cases: 72 h, relative to cycloheximide control, log10 luminescence, inhibitor
MV4-11 = test system: MV4-11
MOLM-13 = test system: MOLM-13
CMS = test system: CMS
M07e = test system: M07e
U937 = test system: U937
ML-2 = test system: ML-2
CHRF288-11 = test system: CHRF288-11
CMK = test system: CMK

## C[C@]12CCC(=O)C=C1CC[C@@H]1[C@@H]2[C@@H](O)C[C@@]2(C)[C@H]1CC[C@]2(O)C(=O)COP(=O)(O)O [SJ000286156-3, HYDROCORTISONE SODIUM PHOSPHATE]
MV4-11
  MV4-11 %inh: -4.752%
MOLM-13
  MOLM-13 %inh: 15.41%
CMS
  CMS %inh: -1.283%
M07e
  M07e %inh: 0.6039%
U937
  U937 %inh: 5.176%
ML-2
  ML-2 %inh: 0.191%
CHRF288-11
  CHRF288-11 %inh: 4.933%
CMK
  CMK %inh: 0.9258%

## CCCCCCCCCCCCCCCCOP(=O)([O-])OCC[N+](C)(C)C [SJ000286181-3, MILTEFOSINE]
MV4-11
  MV4-11 %inh: -0.6681%
MOLM-13
  MOLM-13 %inh: 1.005%
CMS
  CMS %inh: -1.205%
M07e
  M07e %inh: 2.383%
U937
  U937 %inh: -1.059%
ML-2
  ML-2 %inh: -0.1071%
CHRF288-11
  CHRF288-11 %inh: 1.656%
CMK
  CMK %inh: -1.001%

## CN(C)C(=O)Oc1ccc[n+](C)c1 [SJ000286222-6, PYRIDOSTIGMINE BROMIDE]
MV4-11
  MV4-11 %inh: -1.282%
MOLM-13
  MOLM-13 %inh: -2.128%
CMS
  CMS %inh: -3.618%
M07e
  M07e %inh: 2.078%
U937
  U937 %inh: 1.718%
ML-2
  ML-2 %inh: 1.797%
CHRF288-11
  CHRF288-11 %inh: -1.775%
CMK
  CMK %inh: -7.252%

## CC(=O)O[C@]1(C(C)=O)CC[C@H]2[C@@H]3C=C(Cl)C4=CC(=O)[C@@H]5C[C@@H]5[C@]4(C)[C@H]3CC[C@@]21C [SJ000286483-6, CYPROTERONE ACETATE]
MV4-11
  MV4-11 %inh: 2.562%
MOLM-13
  MOLM-13 %inh: -1.163%
CMS
  CMS %inh: 2.38%
M07e
  M07e %inh: 0.443%
U937
  U937 %inh: 1.732%
ML-2
  ML-2 %inh: -2.366%
CHRF288-11
  CHRF288-11 %inh: -0.8844%
CMK
  CMK %inh: -1.818%

## CCCCC1=NC2(CCCC2)C(=O)N1Cc1ccc(-c2ccccc2-c2nnn[nH]2)cc1 [SJ000286674-2, IRBESARTAN]
MV4-11
  MV4-11 %inh: 1.017%
MOLM-13
  MOLM-13 %inh: 17.32%
CMS
  CMS %inh: -2.028%
M07e
  M07e %inh: 0.4149%
U937
  U937 %inh: -0.5514%
ML-2
  ML-2 %inh: 1.25%
CHRF288-11
  CHRF288-11 %inh: 1.638%
CMK
  CMK %inh: 0.3545%

## CC(C)=CCC/C(C)=C/CC/C(C)=C/CO [SJ000286702-2, FARNESOL]
MV4-11
  MV4-11 %inh: -0.08153%
MOLM-13
  MOLM-13 %inh: -0.6204%
CMS
  CMS %inh: -1.627%
M07e
  M07e %inh: 1.694%
U937
  U937 %inh: -0.4236%
ML-2
  ML-2 %inh: 1.139%
CHRF288-11
  CHRF288-11 %inh: -1.355%
CMK
  CMK %inh: -1.858%

## C[C@H](CS)C(=O)N1CCC[C@H]1C(=O)O [SJ000286908-7, CAPTOPRIL]
MV4-11; MV4-11 %inh, 10 µM
  MV4-11 %inh: 2.877%
MOLM-13; MOLM-13 %inh, 10 µM
  MOLM-13 %inh: 2.932%
CMS; CMS %inh, 10 µM
  CMS %inh: 0.1894%
M07e; M07e %inh, 10 µM
  M07e %inh: 3.365%
U937; U937 %inh, 10 µM
  U937 %inh: 2.172%
ML-2; ML-2 %inh, 10 µM
  ML-2 %inh: -0.2844%
CHRF288-11; CHRF288-11 %inh, 10 µM
  CHRF288-11 %inh: 0.04975%
CMK; CMK %inh, 10 µM
  CMK %inh: -2.127%

## C[C@H](CS)C(=O)N1CCC[C@H]1C(=O)O [SJ000286908-8, CAPTOPRIL]
MV4-11; MV4-11 %inh, 10 µM
  MV4-11 %inh: -2.616%
MOLM-13; MOLM-13 %inh, 10 µM
  MOLM-13 %inh: 0.1339%
CMS; CMS %inh, 10 µM
  CMS %inh: -1.291%
M07e; M07e %inh, 10 µM
  M07e %inh: -2.045%
U937; U937 %inh, 10 µM
  U937 %inh: -1.359%
ML-2; ML-2 %inh, 10 µM
  ML-2 %inh: -1.462%
CHRF288-11; CHRF288-11 %inh, 10 µM
  CHRF288-11 %inh: 4.869%
CMK; CMK %inh, 10 µM
  CMK %inh: 0.6591%

## C[C@H](CS)C(=O)N1CCC[C@H]1C(=O)O [SJ000286908-9, CAPTOPRIL]
MV4-11; MV4-11 %inh, 10 µM
  MV4-11 %inh: 1.577%
MOLM-13; MOLM-13 %inh, 10 µM
  MOLM-13 %inh: -1.689%
CMS; CMS %inh, 10 µM
  CMS %inh: 0.9516%
M07e; M07e %inh, 10 µM
  M07e %inh: 0.8569%
U937; U937 %inh, 10 µM
  U937 %inh: -2.673%
ML-2; ML-2 %inh, 10 µM
  ML-2 %inh: -0.6374%
CHRF288-11; CHRF288-11 %inh, 10 µM
  CHRF288-11 %inh: -5.11%
CMK; CMK %inh, 10 µM
  CMK %inh: -4.021%

## C[C@H](CS)C(=O)N1CCC[C@H]1C(=O)O [SJ000286908-10, CAPTOPRIL]
MV4-11; MV4-11 %inh, 10 µM
  MV4-11 %inh: -0.07613%
MOLM-13; MOLM-13 %inh, 10 µM
  MOLM-13 %inh: 0.8092%
CMS; CMS %inh, 10 µM
  CMS %inh: -3.33%
M07e; M07e %inh, 10 µM
  M07e %inh: -1.533%
U937; U937 %inh, 10 µM
  U937 %inh: 51.26%
ML-2; ML-2 %inh, 10 µM
  ML-2 %inh: -0.772%
CHRF288-11; CHRF288-11 %inh, 10 µM
  CHRF288-11 %inh: -3.972%
CMK; CMK %inh, 10 µM
  CMK %inh: 3.343%

## C[C@H](CS)C(=O)N1CCC[C@H]1C(=O)O [SJ000286908-11, CAPTOPRIL]
MV4-11; MV4-11 %inh, 10 µM
  MV4-11 %inh: -2.697%
MOLM-13; MOLM-13 %inh, 10 µM
  MOLM-13 %inh: 1.337%
CMS; CMS %inh, 10 µM
  CMS %inh: -1.329%
M07e; M07e %inh, 10 µM
  M07e %inh: 0.3888%
U937; U937 %inh, 10 µM
  U937 %inh: -18.23%
ML-2; ML-2 %inh, 10 µM
  ML-2 %inh: -1.011%
CHRF288-11; CHRF288-11 %inh, 10 µM
  CHRF288-11 %inh: -3.474%
CMK; CMK %inh, 10 µM
  CMK %inh: -6.202%
